According to patent US9610370B2, “Compositions and methods for tumor imaging and targeting by a class of organic heptamethine cyanine dyes that possess dual nuclear and near-infrared properties” (University of Virginia Patent Foundation, priority 2011, dated 2017):
Where two headings read alike, the source gives them in different places.

Experiments:
[1] = Blood clearance in nude mice; details: mouse, in vivo
Description: FIG. 6 depicts the blood clearance curve of PC-002 in nude mice in accordance with various embodiments of the present invention. The T1/2 is 256.9±13.2 min. (N=3).
The half-life (T1/2) of PC-001, PC-002, and PC-003 is 3, 4.3, and 3 hours, respectively. The long blood circulation times results in good images taken at later hours; for example, 24 to 72 hrs post injection.

MCF-7 xenograft tumors = experiment: Nuclear imaging (microPET/microSPECT) of mice with MCF-7 xenograft tumors; assay type: in vivo; details: for visualization of breast tumors in maximal projection images: PC-002 at 48 h post ip, 18F-FDG at 1.5 h post iv, same mouse, FIG. 4
Description: FIG. 1 depicts the SPECT/CT image of PC-001 with a nude mouse model of a human breast cancer MCF-7 xenograft in accordance with various embodiments of the present invention. […] SPECT/CT scan was performed at 20 h post injection.
FIG. 3 depicts the transverse PET images of PC-002 at 24 and 48 h post ip injection and ^18F-FDG at 1.5 h post iv injection of the same mouse (20 g) harbored with MCF-7 tumor xenografts in accordance with various embodiments of the present invention.
FIG. 4 depicts the comparison of maximal projection images (MPIs) of PC-002 at 48 h post ip injection and ^18F-FDG at 1.5 h post iv injection of the same mouse (20 g) harbored with MCF-7 tumor xenografts in accordance with various embodiments of the present invention.
FIG. 8 depicts the transverse PET images of PC-003 at 48 and 72 h post ip injection and with the same mouse (20 g) with MCF-7 tumor xenografts in accordance with various embodiments of the present invention.
PC-001, PC-002, and PC-003 were evaluated as nuclear imaging probe using mice with MCF-7 xenograft tumors. […] PC-002/PET images were compared with FDG/PET with same mice.

MCF-7 xenografts = experiment: NIR fluorescence imaging, in vivo and ex vivo, of mice with MCF-7 xenografts; details: dissected tumor, ex vivo, FIG. 7
Description: FIG. 2 depicts the NIR fluorescence image of PC-002 with a nude mouse (20 g) with MCF-7 tumor xenografts in accordance with various embodiments of the present invention. PC-002 (10 nmol) in saline (200 ul) was injected via tail vein. The live fluorescence images were performed at time points (as indicated) post injection using an IVIS Spectrum device (Ex/Em=745/800 nm).
FIG. 7 depicts the correlation of PC-002 uptake and ex vivo images in accordance with various embodiments of the present invention. A MCF-7 xenograft tumor was dissected and cut into two halves.
The optical imaging property of “cold” counterpart of PC-002, comprising stable copper isotope, was evaluated with mice models with MCF-7, C4-2, and ARCaPM tumors. In mice with MCF-7 xenografts, tumor uptake of PC-002 was discernable at 3 hrs post injection and contrast of tumor and normal tissues reached most profound at 24 hrs post injection (FIG. 2).
At 24 hrs post PC-002 injection, a MCF-7 xenograft tumor was dissected and cut into two halves. The viable sections of the tumor in white, right photograph matched with PC-002 fluorescence distribution performed using a Caliper Spectrum device (FIG. 7). The cancer cells in the microscopic image of the H/E stained tumor slice were also overlapped with PC-002 NIR fluorescence of the same tumor slice.

[2] = tested on: subcutaneous C4-2 or tibial ARCaPM tumors; experiment: Ex vivo fluorescent imaging and frozen-section microscopy of harvested tumors and soft tissues; assay type: in vivo, mice
Description: FIG. 11 depicts the harvested bone ARCaPM and subcutaneous C4-2 human prostate tumors embedded with OCT at −25° C. and subjected to frozen sectioning using Cryostat in accordance with various embodiments of the present invention. The frozen sections were fixed and aqueously mounted and imaged using fluorescent microscopy (200× magnification). Note the Dual Nuclear/NIR Agent was actively uptaken into tumor cells.
The PC-002 (2 nmole) was intravenously injected into mouse with either subcutaneous C4-2 or tibial ARCaPM tumors and the mice were subjected to fluorescent imaging using the Xenogen Imaging System at the interval of 1 h, 2 h, 4 h, 8 h, 10 h, 12 h, 24 h and 48 h after the dye injection. The fluorescence signal was found accumulating in subcutaneous C4-2 tumor beginning at 24 hr while the signal was found at 2 hr in the in intratibial ARCaPM tumor in mouse skeleton (FIG. 9).
The harvested bone (ARCaPM) and subcutaneous (C4-2) tumors were embedded with OCT at −25° C. and subjected to frozen sectioning using Cryostat.

[3] = tested on: xenograft prostate tumors; experiment: PET imaging of xenograft prostate tumors; assay type: in vivo, mice; details: FIG. 16
Text: FIGS. 16A-D illustrate PET imaging of xenograft prostate tumors.
In the past, several attractive PET probes, such as ^18F-2-fluoro-2-deoxy-D-glucose (18 F-FDG) or 111In-tagged antibodies, and more recently the development of smaller sized versions of antibodies such as diabodies and minibodies recognizing PSMA and PSCA, have been proposed to detect PCa; but because of their relative large molecular weight as antibodies, potential host immune response to foreign antibodies, and the lack of Pca specificity using 18F-FDG, application of PET/SPECT probe to detect PCa has not been successful. […] As a small molecule, PC-002 has the advantages of being non-immunogenic, easier to purify and to scale-up, and higher stability for storage and shipping. Because of suboptimal NIR dye signal penetration through deep tissues, we chemically synthesized PC-002, a lead PET 64Cu-DOTA-NIR dye30, to facilitate future translation to the clinic. […] Based on this highly promising result, 64Cu-DOTA-based NIR dye for imaging PCa bone and soft tissue metastases can be used concurrently with 99 mTc-MDP to detect reactive bone activity. For example, this strategy can be used in the robust mouse models of PCa metastasis developed by our laboratory. […]

OATP = details: cited from earlier work
[4] = tested on: human and mouse cancer cell lines in vitro and tumor xenografts in vivo; details: cited from earlier work

CC1(C)C(/C=C/C2=C(Cl)C(=C/C=C3/N(CCCCCC(=O)NCCCCC(NC(=O)C[N+]45CC[N+]6(CC(=O)[O-])CC[N+]7(CC(=O)[O-])CC[N+](CC(=O)O)(CC4)[64Cu-2]765)C(=O)O)c4ccccc4C3(C)C)/CCC2)=[N+](CCCCCC(=O)O)c2ccccc21 (centres unmarked) [PC-002]
half-life ([1]; half-life (T1/2), blood clearance): 258 min | half-life ([1]; nude mice, N=3, FIG. 6, read-out: blood clearance T1/2): 257 ± 13.2 min | SUV of MCF-7 tumor relative to hind leg muscles (MCF-7 xenograft tumors; FIG. 5): 6 times | visualization of breast tumors in maximal projection images (MCF-7 xenograft tumors): clearly visualized | suitability as nuclear imaging probe (MCF-7 xenograft tumors; microPET or microSPECT): suitable candidates for molecular imaging of cancer | tumor contrast and selectivity compared with FDG/PET (MCF-7 xenograft tumors; same mice, FIGS. 3 and 4): higher tumor contrast and selectivity than FDG | association of NIR and PC-002 signals with tumor tissue type (MCF-7 xenografts): associated with viable and not necrotic tissues | uptake in frozen sections, fluorescent microscopy ([2]; 200× magnification, FIG. 11): selectively uptaken in cancer cells | uptake and retention, ex vivo fluorescent imaging ([2]; harvested at 24 hrs post injection, FIG. 10): in tumor only | selectivity for tumor xenografts [3]: remarkable selectivity

OC[C@H]1OC(O)[C@H]([18F])[C@@H](O)[C@@H]1O (stereo partly drawn) [FDG, 18F-2-fluoro-2-deoxy-D-glucose, reference compound]
visualization of breast tumors in maximal projection images (MCF-7 xenograft tumors): only barely seen

O=C1OC(c2ccc(O)c(S(=O)(=O)O)c2)(c2ccc(O)c(S(=O)(=O)O)c2)c2c(Br)c(Br)c(Br)c(Br)c21 [BSP]
effect on NIR dye uptake (OATP): completely blocked

CCCN1/C(=C/C=C2\CCCC(/C=C/C3=[N+](CCC)c4ccccc4C3(C)C)=C2Cl)C(C)(C)c2ccccc21.[I-] [IR-780]
uptake and retention by cancer cell lines and tumor xenografts [4]: uptake and retention

CC1(C)C(=CC=C2CCCC(C=CC3=[N+](CCCCS(=O)(=O)[O-])c4ccccc4C3(C)C)=C2Cl)N(CCCCS(=O)(=O)[O-])c2ccccc21.[Na+] [IR783]
uptake and retention by cancer cell lines and tumor xenografts [4]: uptake and retention
